Patent US20050053669A1, “Administration form for the oral application of poorly soluble acidic and amphorteric drugs” (Boehringer Ingelheim International GmbH, priority 2003, published 2005)

Tests used:
[1] = phase I study, plasma levels on increasing the dose; format: in vivo, human
Excerpt: Generally increasing the dose in order to compensate for the reduced bioavailability in patients is frequently undesirable because of the waste of active substance and the greater burden on the patient and the associated risk of side effects, for example, or even totally impossible, on the grounds of drug safety.

[2] = solubility of the active substance; format: physicochemical
Method: The solubility of a compound may be determined by dispersing an excess of the compound at ambient temperature in the medium in question and shaking it vigorously for a defined length of time (approx. 1 to 24 h) until equilibrium is achieved. After filtration the pH is determined in the clear filtrate and the concentration of the dissolved substance is determined by spectral photometry or some other suitable analytical process.

SMILES | plasma levels achieved with 200 mg ([1]; 200 mg compared with 600 mg) | higher plasma levels on increasing the dose ([1]; dose increased from 100 to 600 mg) | solubility in an acidic medium [2]
O=C(O)CCC/C=C(\c1ccc(CCNS(=O)(=O)c2ccc(Cl)cc2)cc1)c1cccnc1 [DT-TX 30] | equal to those obtained with 600 mg | about 50% | –
CCCc1nc2c(C)cc(-c3nc4ccccc4n3C)cc2n1Cc1ccc(-c2ccccc2C(=O)O)cc1 [telmisartan] | – | – | readily soluble
